Assay results published in patent US9353116B2, “Methods and compositions for kinase inhibition” (THE REGENTS OF THE UNIVERSITY OF CALIFORNIA, priority 2010, dated 2016).
pIC50: −log10 of the molar value. Read-outs that look alike come from different tables or passages of the source.

Target: T338C c-Src (Gallus gallus (Chicken), UniProt P00523, T338C)
Experiment: In vitro kinase assay, T338C c-Src (c-Src-ES1)
Format: biochemical
Experimental: In vitro kinase assays for c-Src variants were performed in 50 mM Tris (pH 8.0), 10 mM MgCl2 and 1 mg/mL BSA. When obtaining kinetic parameters (kcat, Km) kinase and peptide substrate (IYGEFKKK) (SEQ ID NO:51) concentrations were 2 nM and 500 μM, respectively, while ATP concentrations ranged from 2000-0.655 μM. Addition of nonradioactive ATP supplemented with ^32P ATP (3,000 Ci/mmol, NEN) was used to initiate kinase reactions. Time points were selected such that product formation never exceeded 10%. Reactions were quenched by spotting 3 μL quantities onto phosphocellulose sheets (P81, Whatman). Afterwards, the sheets were washed 3×5 minutes in 0.5% phosphoric acid and dried. Radioactivity was measured by phosphorimaging and recorded on a Typhoon fluorescence imager (Molecular Dynamics). Data were plotted as rate (min^−1) versus ATP concentration and fitted to the Michaelis-Menten equation, v=[(kcat)[S]]/(Km+[S]), using Kaleidagraph software (Synergy) to extract kinetic parameters. When obtaining IC50 values for the inhibitors, 2% (v/v) DMSO was included in kinase reactions. In these cases ATP, peptide, and enzyme concentrations were 15 nM, 100 μM and 5 nM, respectively, while inhibitor concentrations ranged from 10,000-0.610 nM. […] The data was fitted to a sigmoidal dose-response curve using Prism 4.0c (GraphPad Software) to obtain IC50 values.

## CC(C)n1nc(Cc2cccc(C(=O)CF)c2)c2c(N)ncnc21 [Compound 13, 1-(3-((4-amino-1-isopropyl-1H-pyrazolo[3,4-d]pyrimidin-3-yl)methyl)phenyl)-2-fluoroethanone]
  time dependence of inhibition of T338C c-Src: time-dependent manner
ES1 = T338C, read-out: c-Src variant IC50 (nM) ES1
  IC50: 338 nM
T338C c-Src
  fold more potent than the corresponding ketone 14: > 13 fold
T338C c-Src IC50 (nM), preincubation time 2 min
  IC50: 1280 nM
T338C c-Src IC50 (nM), preincubation time 20 min
  IC50: 318 nM
T338C c-Src IC50 (nM), preincubation time 40 min
  IC50: 136 nM
Inhibitor preincubated with Src ten minutes prior to addition of ATP, read-out: T338C c-Src IC50
  pIC50: 6.47
